Values quoted from earlier work in patent publication US20200046831A1, “NANOEMULSION COMPRISING IMIDAZOQUINOLINE-BASED MATERIAL AND USE THEREOF” (DANDI BIOSCIENCE INC., priority 2017, published 2020).

CC(C)Cn1cnc2c(N)nc3ccccc3c21 [imiqimod (R837), imiquimod]
solubility in organic solvents: not dissolved in most organic solvents except for DMSO
